Reference: patent US9315490B2, “2,5-substituted pyrimidines” (Grünenthal GmbH, priority 2014, dated 2016)

Columns and labels:
human PDE4B1 = target: T1, human PDE4B1 (Homo sapiens, UniProt Q07343); experiment: TR-FRET assay using the LANCE Ultra cAMP kit to determine the activity of hPDE4B1; format: biochemical; conditions: read-out: Inhibition in % (inhibition of PDE4B); for inhibition at 1 µM: test concentration 1 μM
T1 construct: host or cells: Sf9 cells
Procedure, shortened: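 Sf9-expressed recombinant human PDE4B1 (0.96 U) hydrolyses 500 nM cAMP for 30 minutes at room temperature in 50 mM Tris-HCl, 50 mM MgCl2, 5 mM DTT, pH 8.5. The reaction is stopped with IBMX, and residual cAMP is measured by TR-FRET (665/620 ratio). IC50 comes from ten concentrations.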

T1 sequence (Q07343 whole entry): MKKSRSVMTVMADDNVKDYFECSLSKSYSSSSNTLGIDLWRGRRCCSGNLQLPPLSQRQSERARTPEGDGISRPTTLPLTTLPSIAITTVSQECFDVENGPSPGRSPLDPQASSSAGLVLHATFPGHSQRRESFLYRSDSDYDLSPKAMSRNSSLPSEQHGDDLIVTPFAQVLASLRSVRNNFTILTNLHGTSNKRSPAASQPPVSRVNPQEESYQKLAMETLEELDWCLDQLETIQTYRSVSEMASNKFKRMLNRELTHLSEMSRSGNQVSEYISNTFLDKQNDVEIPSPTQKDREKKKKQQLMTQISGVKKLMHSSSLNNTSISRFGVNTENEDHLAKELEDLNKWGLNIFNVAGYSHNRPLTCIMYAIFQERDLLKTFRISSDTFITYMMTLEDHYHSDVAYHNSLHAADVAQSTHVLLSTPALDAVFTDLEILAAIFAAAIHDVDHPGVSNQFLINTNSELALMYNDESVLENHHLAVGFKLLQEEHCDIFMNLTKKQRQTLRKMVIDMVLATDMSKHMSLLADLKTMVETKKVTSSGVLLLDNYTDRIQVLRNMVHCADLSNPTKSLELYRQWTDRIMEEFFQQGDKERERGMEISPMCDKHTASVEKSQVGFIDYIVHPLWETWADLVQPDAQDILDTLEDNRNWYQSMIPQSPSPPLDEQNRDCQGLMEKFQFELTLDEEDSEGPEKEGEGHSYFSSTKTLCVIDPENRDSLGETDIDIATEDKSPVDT

Structure (SMILES): CNCCN(C)C(=O)c1ccc2c([S+](C)[O-])cn(-c3ncc(-c4ccccc4F)cn3)c2c1 (centres unmarked) [Example 346, 1-(5-(2-Fluorophenyl)pyrimidin-2-yl)-N-methyl-N-(2-(methylamino)ethyl)-3-(methylsulfinyl)-1H-indole-6-carboxamide]
- inhibition at 1 µM (human PDE4B1): 87%
- melting point: 122 to 126 °C

Structure (SMILES): C[S+]([O-])c1cn(-c2ncc(-c3ccccc3F)cn2)c2cc(C(=O)N3CC4CCC3CN4)ccc12 (centres unmarked) [Example 347, 2,5-Diazabicyclo[2.2.2]octan-2-yl(1-(5-(2-fluorophenyl)pyrimidin-2-yl)-3-(methylsulfinyl)-1H-indol-6-yl)methanone]
- inhibition at 10 µM (human PDE4B1; test concentration 10 μM (marked in cell)): 97%
- melting point: 141 to 144 °C

Structure (SMILES): C[S+]([O-])c1cn(-c2ncc(-c3ccccc3F)cn2)c2cc(C(=O)N3C4CCC3CNC4)ccc12 (centres unmarked) [Example 348, 3,8-Diazabicyclo[3.2.1]octan-8-yl(1-(5-(2-fluorophenyl)pyrimidin-2-yl)-3-(methylsulfinyl)-1H-indol-6-yl)methanone]
- inhibition at 1 µM (human PDE4B1): 99%
- melting point: 237 to 240 °C

Structure (SMILES): O=C(c1ccc2c(C3CC3)cn(-c3ncc(-c4ccccc4F)cn3)c2c1)N1CCOCC1 [Example 354, (3-Cyclopropyl-1-(5-(2-fluorophenyl)pyrimidin-2-yl)-1H-indol-6-yl)(morpholino) methanone]
- inhibition at 1 µM (human PDE4B1): 71%
- melting point: 177 to 181 °C
